Data reported in patent US20260174701A1, “HIGH STRENGTH SINGLE UNIT DOSE FORMULATIONS AND METHODS OF USE THEREOF” (Praxis Precision Medicines, Inc., priority 2023, published 2026).

How the values were obtained:
animal model of ET = test: Animal model of ET; details: in vivo
CaV3.1 = CaV3.1 (Homo sapiens, UniProt O43497); test: In vitro electrophysiology studies; type: cell-based
CaV3.3 = CaV3.3 (Homo sapiens, UniProt Q9P0X4); test: In vitro electrophysiology studies; type: cell-based
Sequence of CaV3.3 (Q9P0X4 whole entry): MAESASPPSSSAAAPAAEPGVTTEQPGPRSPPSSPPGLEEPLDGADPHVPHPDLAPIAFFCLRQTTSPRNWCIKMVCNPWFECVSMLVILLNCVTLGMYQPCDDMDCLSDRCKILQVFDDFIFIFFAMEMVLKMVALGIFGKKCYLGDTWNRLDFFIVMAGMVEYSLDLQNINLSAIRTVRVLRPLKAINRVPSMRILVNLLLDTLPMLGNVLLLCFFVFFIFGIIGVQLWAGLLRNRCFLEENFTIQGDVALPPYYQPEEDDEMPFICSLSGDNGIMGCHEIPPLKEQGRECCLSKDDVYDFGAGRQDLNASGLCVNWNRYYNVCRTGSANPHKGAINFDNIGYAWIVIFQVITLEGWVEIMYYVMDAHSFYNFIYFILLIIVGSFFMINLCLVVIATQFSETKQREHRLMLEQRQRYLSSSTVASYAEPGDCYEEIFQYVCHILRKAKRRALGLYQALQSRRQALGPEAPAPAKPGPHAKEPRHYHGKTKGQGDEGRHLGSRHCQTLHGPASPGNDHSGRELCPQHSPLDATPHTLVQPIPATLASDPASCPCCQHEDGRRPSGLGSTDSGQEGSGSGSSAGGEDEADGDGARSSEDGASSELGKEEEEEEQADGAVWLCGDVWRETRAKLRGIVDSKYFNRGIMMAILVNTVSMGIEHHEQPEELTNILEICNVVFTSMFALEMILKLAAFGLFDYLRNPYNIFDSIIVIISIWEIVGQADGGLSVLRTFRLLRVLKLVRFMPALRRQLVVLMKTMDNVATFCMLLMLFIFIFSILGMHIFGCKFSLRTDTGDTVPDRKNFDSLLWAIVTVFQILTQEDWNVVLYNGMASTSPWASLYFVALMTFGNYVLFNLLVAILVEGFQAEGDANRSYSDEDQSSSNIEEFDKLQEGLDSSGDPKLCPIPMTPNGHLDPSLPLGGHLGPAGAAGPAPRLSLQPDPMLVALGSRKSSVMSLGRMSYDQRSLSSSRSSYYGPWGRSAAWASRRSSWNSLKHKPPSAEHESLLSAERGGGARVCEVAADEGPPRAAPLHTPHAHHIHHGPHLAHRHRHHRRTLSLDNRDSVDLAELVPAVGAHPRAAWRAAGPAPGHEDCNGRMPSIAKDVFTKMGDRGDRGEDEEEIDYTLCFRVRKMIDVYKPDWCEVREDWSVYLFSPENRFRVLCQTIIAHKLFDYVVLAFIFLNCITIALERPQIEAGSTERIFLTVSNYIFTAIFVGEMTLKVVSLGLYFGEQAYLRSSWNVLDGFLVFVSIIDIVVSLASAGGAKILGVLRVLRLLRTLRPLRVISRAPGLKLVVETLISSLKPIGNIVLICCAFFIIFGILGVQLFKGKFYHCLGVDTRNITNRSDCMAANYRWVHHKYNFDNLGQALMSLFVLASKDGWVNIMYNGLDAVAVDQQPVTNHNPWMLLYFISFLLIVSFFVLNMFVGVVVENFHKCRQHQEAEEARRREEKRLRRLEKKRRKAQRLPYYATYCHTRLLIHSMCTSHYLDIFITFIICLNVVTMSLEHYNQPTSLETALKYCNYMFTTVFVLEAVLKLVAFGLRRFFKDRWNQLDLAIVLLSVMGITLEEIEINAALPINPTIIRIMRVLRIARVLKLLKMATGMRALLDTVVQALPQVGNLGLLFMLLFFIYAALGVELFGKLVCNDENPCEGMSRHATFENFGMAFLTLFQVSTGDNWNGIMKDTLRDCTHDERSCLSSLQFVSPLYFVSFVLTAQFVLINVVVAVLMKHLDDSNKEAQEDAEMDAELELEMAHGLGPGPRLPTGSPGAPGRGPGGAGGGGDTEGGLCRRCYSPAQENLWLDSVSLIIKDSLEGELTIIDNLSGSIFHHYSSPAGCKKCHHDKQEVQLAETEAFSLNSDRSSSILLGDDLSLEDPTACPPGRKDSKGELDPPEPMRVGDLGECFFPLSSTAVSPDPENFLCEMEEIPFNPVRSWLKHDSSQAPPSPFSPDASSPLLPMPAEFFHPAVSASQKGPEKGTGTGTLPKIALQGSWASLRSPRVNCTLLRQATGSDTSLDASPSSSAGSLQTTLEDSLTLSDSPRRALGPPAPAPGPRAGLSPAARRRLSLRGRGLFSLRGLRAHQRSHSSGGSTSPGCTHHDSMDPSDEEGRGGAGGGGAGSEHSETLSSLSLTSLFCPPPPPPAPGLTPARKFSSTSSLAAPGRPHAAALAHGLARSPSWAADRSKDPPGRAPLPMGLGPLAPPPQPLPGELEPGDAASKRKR

Sequence of CaV3.1 (O43497 whole entry): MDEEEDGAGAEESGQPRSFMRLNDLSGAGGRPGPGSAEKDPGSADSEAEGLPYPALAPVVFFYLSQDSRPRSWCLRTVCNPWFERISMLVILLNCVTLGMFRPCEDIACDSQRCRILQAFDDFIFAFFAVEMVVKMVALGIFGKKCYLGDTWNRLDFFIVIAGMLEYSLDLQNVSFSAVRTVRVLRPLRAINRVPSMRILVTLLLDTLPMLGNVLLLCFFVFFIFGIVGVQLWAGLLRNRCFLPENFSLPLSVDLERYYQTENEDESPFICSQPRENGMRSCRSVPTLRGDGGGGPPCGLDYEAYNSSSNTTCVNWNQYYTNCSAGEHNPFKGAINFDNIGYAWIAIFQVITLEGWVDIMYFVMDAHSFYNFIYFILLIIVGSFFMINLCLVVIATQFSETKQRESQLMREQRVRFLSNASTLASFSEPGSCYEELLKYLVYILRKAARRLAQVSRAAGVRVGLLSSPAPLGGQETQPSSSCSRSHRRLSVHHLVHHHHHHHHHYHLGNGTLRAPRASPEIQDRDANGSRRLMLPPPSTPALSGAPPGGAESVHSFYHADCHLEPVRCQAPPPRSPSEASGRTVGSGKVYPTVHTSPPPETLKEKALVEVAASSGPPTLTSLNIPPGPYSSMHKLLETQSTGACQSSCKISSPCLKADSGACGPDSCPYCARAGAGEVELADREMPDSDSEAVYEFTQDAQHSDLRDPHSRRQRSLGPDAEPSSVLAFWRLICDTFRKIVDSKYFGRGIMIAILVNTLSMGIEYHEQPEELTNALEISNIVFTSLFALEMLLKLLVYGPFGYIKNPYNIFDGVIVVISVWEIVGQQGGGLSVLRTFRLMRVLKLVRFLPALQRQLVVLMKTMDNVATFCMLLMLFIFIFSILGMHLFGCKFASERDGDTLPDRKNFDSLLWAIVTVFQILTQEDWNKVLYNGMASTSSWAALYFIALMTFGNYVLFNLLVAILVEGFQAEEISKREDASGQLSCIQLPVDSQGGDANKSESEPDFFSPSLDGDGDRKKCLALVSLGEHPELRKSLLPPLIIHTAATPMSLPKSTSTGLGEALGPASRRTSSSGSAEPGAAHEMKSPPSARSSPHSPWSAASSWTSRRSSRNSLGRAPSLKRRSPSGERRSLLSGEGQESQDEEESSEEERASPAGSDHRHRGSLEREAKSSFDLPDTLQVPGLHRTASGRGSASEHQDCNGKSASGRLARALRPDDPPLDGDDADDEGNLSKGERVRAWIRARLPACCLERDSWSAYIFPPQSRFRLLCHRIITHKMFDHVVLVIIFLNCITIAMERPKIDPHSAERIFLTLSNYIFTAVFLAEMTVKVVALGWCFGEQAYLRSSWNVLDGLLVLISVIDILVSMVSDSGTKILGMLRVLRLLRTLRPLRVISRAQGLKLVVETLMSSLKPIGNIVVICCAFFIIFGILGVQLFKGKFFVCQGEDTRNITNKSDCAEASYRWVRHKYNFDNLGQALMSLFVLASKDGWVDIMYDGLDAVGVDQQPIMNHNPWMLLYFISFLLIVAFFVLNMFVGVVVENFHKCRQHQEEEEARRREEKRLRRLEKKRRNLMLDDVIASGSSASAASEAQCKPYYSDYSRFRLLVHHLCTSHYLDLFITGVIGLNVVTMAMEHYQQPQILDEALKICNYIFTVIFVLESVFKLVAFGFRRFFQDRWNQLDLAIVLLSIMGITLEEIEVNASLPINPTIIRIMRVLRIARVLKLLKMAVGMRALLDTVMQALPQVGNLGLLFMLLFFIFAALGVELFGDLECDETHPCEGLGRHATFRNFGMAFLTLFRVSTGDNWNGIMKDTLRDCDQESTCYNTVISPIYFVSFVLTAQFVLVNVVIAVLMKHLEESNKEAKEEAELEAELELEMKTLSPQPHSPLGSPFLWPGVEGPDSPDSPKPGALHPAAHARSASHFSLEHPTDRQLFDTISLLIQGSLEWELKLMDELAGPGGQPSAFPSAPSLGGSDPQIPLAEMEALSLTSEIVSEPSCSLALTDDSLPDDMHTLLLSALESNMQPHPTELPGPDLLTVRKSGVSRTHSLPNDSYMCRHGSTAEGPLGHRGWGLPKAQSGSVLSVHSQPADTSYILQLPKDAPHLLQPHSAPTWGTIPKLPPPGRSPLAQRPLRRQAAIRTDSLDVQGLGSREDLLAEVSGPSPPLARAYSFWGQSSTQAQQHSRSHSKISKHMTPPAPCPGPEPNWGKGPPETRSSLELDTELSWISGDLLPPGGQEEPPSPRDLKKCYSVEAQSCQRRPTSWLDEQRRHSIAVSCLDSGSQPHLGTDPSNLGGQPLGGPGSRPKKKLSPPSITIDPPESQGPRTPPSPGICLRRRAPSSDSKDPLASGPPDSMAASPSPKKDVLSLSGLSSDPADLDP

SMILES: CC(C)(C)NC(=O)CN1CCC(CNC(=O)c2cc(F)cc(Cl)c2)CC1.Cl [PRAX-944, N-((1-(2-(tert-butylamino)-2-oxoethyl)piperidin-4-yl)methyl)-3-chloro-5-fluorobenzamide hydrochloride]
- Activity in an animal model of ET (animal model of ET): robust activity
- Potency for T-type Ca2+ channels (CaV3.1): nanomolar
- Potency for T-type Ca2+ channels (CaV3.3): nanomolar
